Assay results taken from ChEMBL document CHEMBL1125962, “A new class of leukotriene biosynthesis inhibitors: The development of ((4-(4-chlorophenyl)-1-(4-(2-quinolinylmethoxy)phenyl)butyl)thio)acetic acid, L-674,636” (Bioorg Med Chem Lett, 1991).

Experiments:
[1] = Inhibition of leukotriene synthesis was assessed from inhibitory activity against human PMN.; type: functional
[2] = Percentage blockade of ascaris-induced bronchoconstriction by the compound was determined at a dose of 1 mg/kg in conscious squirrel monkey; type: functional
Rattus norvegicus [3] = species: Rattus norvegicus; assay: The effective dose was measured in antigen-induced dyspnea in inbred hyperreactive rats.; type: functional
[4] = Compound was tested for bioavailability in squirrel monkey; type: ADME, organism-based, Saimiri sciureus; settings: in vivo
[5] = Compound was tested for bioavailability in rats; type: ADME, organism-based; settings: rat, in vivo
Rattus norvegicus [6] = species: Rattus norvegicus; assay: The effective dose was measured by using rat pleurisy assay.; type: functional

Compound | IC50 [1] [nM] | also measured
O=C(O)CSC(CCCc1ccccc1)c1ccc(OCc2ccc3ccccc3n2)cc1 (stereo unspecified) [AZD-4769] | 3 | 
O=C(O)CO/N=C(\CCCc1ccccc1)c1ccc(OCc2ccc3ccccc3n2)cc1 | 80 | 
CCCCCC(O)c1cccc(OCc2ccc3ccccc3n2)c1 (stereo unspecified) [REV-5901] | 1800 | 
CCCCCC(O)c1ccc(OCc2ccc3ccccc3n2)cc1 (stereo unspecified) | 90 | 
OC(CCCc1ccccc1)c1ccc(OCc2ccc3ccccc3n2)cc1 (stereo unspecified) | 30 | 
O=C(O)CSC(CCCc1ccc(Cl)cc1)c1ccc(OCc2ccc3ccccc3n2)cc1 (stereo unspecified) | 7 | Blockade [2]: 80%; ED50 (Rattus norvegicus [3]): 0.035 mg/kg; bioavailability [4]: 93%; bioavailability [5]: 100%; ED50 (Rattus norvegicus [6]): 1.6 mg/kg
